The assay has as its target 5'-AMP-activated protein kinase catalytic subunit alpha-2 (Homo sapiens, UniProt P54646). The experiment in a line: enzyme-linked immunosorbent assay. Here is the method:
Compounds were assayed for their ability to activate AMPK using an enzyme-linked immunosorbent assay. Reagents and procedures for measuring AMPK activation are well known and kits for AMPK activation assays are commercially available.

Sequence of 5'-AMP-activated protein kinase catalytic subunit alpha-2 (P54646 whole entry): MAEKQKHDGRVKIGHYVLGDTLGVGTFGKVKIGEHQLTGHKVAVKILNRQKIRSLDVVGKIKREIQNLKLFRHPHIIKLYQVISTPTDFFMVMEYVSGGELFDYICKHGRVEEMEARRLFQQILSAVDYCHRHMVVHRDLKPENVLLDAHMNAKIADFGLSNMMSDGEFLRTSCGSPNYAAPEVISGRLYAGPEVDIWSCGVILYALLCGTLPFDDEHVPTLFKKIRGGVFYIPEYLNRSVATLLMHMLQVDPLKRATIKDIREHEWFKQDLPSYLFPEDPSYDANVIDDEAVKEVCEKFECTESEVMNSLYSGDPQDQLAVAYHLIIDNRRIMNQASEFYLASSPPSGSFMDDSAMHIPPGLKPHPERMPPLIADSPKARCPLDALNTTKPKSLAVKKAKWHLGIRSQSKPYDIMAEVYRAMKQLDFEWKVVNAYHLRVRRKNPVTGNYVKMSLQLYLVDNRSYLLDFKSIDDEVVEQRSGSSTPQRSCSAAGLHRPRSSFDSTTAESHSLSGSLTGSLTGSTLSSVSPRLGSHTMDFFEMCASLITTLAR

A word on the EC50: it is the midpoint of the concentration-response curve. Low values mean a more potent agent, high ones a less potent agent. For `O=C(Nc1ccccc1-c1ccccc1)c1ccc(C(=O)N2CCN(Cc3ccc(F)cc3)CC2)cn1` [US10377742, Compound 19], the EC50 was over 1 µM.

Consider `O=C(Nc1ccc(-c2ccc([N+](=O)[O-])cc2)cc1)c1ccc(C(=O)N2CCN(Cc3ccc(F)cc3)CC2)cn1` [US10377742, Compound 20], for which the EC50 was over 1 µM.

The values are drawn from BindingDB's records for patent US10377742 (Rigel Pharmaceuticals, 2019).
